Experimental data from patent US20250059184A1 (priority 2021, published 2025).

Key:
[1] = tested on: 5HT2A sensor; conditions: cited from earlier work
[2] = tested on: 5HT2A sensor; conditions: cited from earlier work; remark: listed apart in the source
[3] = molecular target: T1, 5-HT2A (Homo sapiens, UniProt P28223); assay: Serotonin 5-HT2A in vitro radioligand binding competition assay ([3H]-DOI); design: purchased Epics Therapeutics S.A. (Belgium) FAST-0505B; conditions: [3H]-DOI radiotracer, membrane extracts
T1 sequence (P28223 whole entry): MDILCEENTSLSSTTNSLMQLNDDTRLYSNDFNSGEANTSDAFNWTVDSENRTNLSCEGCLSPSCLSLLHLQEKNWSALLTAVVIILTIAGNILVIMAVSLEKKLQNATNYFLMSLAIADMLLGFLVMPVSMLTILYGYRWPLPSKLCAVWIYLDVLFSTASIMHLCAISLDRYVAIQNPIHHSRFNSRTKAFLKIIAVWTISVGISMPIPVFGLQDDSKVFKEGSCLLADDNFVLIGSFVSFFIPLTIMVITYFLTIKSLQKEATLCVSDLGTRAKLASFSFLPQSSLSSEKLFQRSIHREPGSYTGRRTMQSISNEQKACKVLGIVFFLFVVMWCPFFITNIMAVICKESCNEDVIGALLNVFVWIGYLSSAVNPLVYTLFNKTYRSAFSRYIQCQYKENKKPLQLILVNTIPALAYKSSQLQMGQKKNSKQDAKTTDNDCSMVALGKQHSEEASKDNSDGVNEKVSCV
Experimental: Serotonin 5-HT2A In Vitro Radioligand Binding Competition Assay. The 5-HT2A radioligand binding competition assay was performed at Epics Therapeutics S.A. (Belgium, FAST-0505B) using conventional methods. Briefly, competition binding was performed in duplicate in the wells of a 96 well plate (Master Block, Greiner, 786201) containing binding buffer (optimized for each receptor), membrane extracts (amount of protein/well optimized for each receptor), radiotracer [^3H]-DOI (final concentration optimized for each receptor) and test compound. Nonspecific binding was determined by co-incubation with 200-fold excess of cold competitor. The samples were incubated in a final volume of 0.1 ml at a temperature and for a duration optimized for each receptor and then filtered over filter plates. Filters were washed six times with 0.5 ml of ice-cold washing buffer (optimized for each receptor) and 50 μl of Microscint 20 (Packard) were added in each well. The plates were incubated 15 min on an orbital shaker and then counted with a TopCount™ for 1 min/well.

[4] = molecular target: T1, 5-HT2A; assay: Serotonin 5-HT2A in vitro cellular IPOne agonism assay (HTRF); format: cell-based; design: host or cells: CHO-K1; conditions: CHO-K1 cells, agonist mode
Experimental: (§1) Serotonin 5-HT2A In Vitro Cellular IPOne Agonism Assay. The 5-HT2A IPOne HTRF assay was performed at Epics Therapeutics S.A. (Belgium, FAST-0505I) using conventional methods. Briefly, CHO-K1 cells expressing human recombinant 5-HT2A receptor grown to mid-log phase in culture media without antibiotics were detached with PBS-EDTA, centrifuged, and resuspended in medium without antibiotics buffer. 20,000 cells were distributed in a 96 well plate and incubated overnight at 37° C. with 5% Co2.
For agonist testing, the medium was removed and 20 μl of assay buffer plus 20 μl of test compound or reference agonist were added in each well. The plate was incubated for 60 min. at 37° C. with 5% CO2.
(§2) After addition of the lysis buffer containing IP1-d2 and anti-IP1 cryptate detection reagents, plates were incubated 1-hour at room temperature, and fluorescence ratios were measured according to the manufacturer specification, with the HTRF kit.

[5] = molecular target: T1, 5-HT2A; assay: Serotonin 5-HT2A in vitro cellular IPOne antagonism assay (HTRF); format: cell-based; design: host or cells: CHO-K1; conditions: CHO-K1 cells, reference agonist α-Me-5HT; read-out: 5-HT2A IPOne Antagonist Activity
Experimental: as §1, with “Antagonism” for “Agonism”, “FAST-O0505) in antagonism mode” for “FAST-0505I)”
For antagonist testing, a reference agonist α-Me-5HT was added and fluorescence signal monitored for several minutes, followed by addition of 20 μl of assay buffer plus 20 μl of test compound or reference antagonist ketanserin, in each well. The plate was incubated for 60 min. at 37° C. with 5% CO2.
as §2

[6] = tested on: mice; conditions: mouse, in vivo; cited from earlier work

| Compound | activation of the 5HT2A sensor assay in agonist mode [1] | competition with 5-HT in the 5HT2A sensor assay in antagonist mode [2] | IC50 [3] | EC50 [4] | IC50 [5] | head-twitch response (HTR) [6] |
| --- | --- | --- | --- | --- | --- | --- |
| L-MDMA | do not activate the 5HT2A sensor assay in agonist mode | – | – | – | – | – |
| O=C(c1ccc(F)cc1)C1CCN(CCn2c(=O)[nH]c3ccccc3c2=O)CC1 [Ketanserin] | do not activate the 5HT2A sensor assay in agonist mode | can compete with 5HT binding to 5HT2A | – | – | – | – |
| CN1CCCC1Cc1ncc2ccccn12 (centres unmarked) [Compound 31, 3-((1-Methylpyrrolidin-2-yl)methyl)imidazo[1,5-a]pyridine] | – | – | 1000 to 10000 nM | > 10000 nM | 101 to 1000 nM | – |
| Cc1ccn2c(CC(C)N)ncc2c1 (centres unmarked) [Compound 9, 1-(7-methylimidazo[1,5-a]pyridin-3-yl)propan-2-amine] | – | – | 1000 to 10000 nM | 1000 to 10000 nM | > 10000 nM | – |
| 5-MeO-DMT [Compound 5-MeO-DMT] | activate the 5HT2A sensor assay in agonist mode | – | – | – | – | robust, dose-dependent head-twitch response |
| CC(Cc1ncc2ccccn12)N(C)C (centres unmarked) [Compound 15, 1-(imidazo [1,5-a]pyridin-3-yl)-N,N-dimethylpropan-2-amine] | – | – | 1000 to 10000 nM | > 10000 nM | 1000 to 10000 nM | – |
| R-MDMA | do not activate the 5HT2A sensor assay in agonist mode | – | – | – | – | – |
| 6-F-DET [Compound 6-F-DET] | do not activate the 5HT2A sensor assay in agonist mode | can compete with 5HT binding to 5HT2A | – | – | – | – |
| CC(Cc1ncc2cc(F)ccn12)N(C)C (centres unmarked) [Compound 17, 1-(7-fluoroimidazo[1,5-a]pyridin-3-yl)-N,N-dimethylpropan-2-amine] | – | – | 101 to 1000 nM | > 10000 nM | 101 to 1000 nM | – |
| CN(C)CCc1ncn2ccccc12 [Compound 43, 2-(imidazo [1,5-a]pyridin-1-yl)-N,N-dimethylethan-1-amine] | – | – | 1000 to 10000 nM | > 10000 nM | 101 to 1000 nM | – |
| CN(C)C(C)(C)Cc1ncc2ccccn12 [Compound 19, 1-(imidazo [1,5-a]pyridin-3-yl)-N,N,2-trimethylpropan-2-amine] | – | – | 1000 to 10000 nM | > 10000 nM | 1000 to 10000 nM | – |
| BOL148 | do not activate the 5HT2A sensor assay in agonist mode | can compete with 5HT binding to 5HT2A | – | – | – | – |
| CC(Cc1ncn2ccccc12)N(C)C (centres unmarked) [Compound 44, 1-(imidazo [1,5-a]pyridin-1-yl)-N,N-dimethylpropan-2-amine] | – | – | 1000 to 10000 nM | > 10000 nM | 101 to 1000 nM | – |
| CN(C)CCc1c[nH]c2ccccc12 [DMT, N,N-dimethyltryptamine] | activate the 5HT2A sensor assay in agonist mode | – | – | – | – | – |
| C[C@H](Cc1ncc2ccccn12)N(C)C [Compound 30, (R)-1-(imidazo[1,5-a]pyridin-3-yl)-N,N-dimethylpropan-2-amine] | – | – | 101 to 1000 nM | > 10000 nM | 1000 to 10000 nM | – |
| c1ccn2c(C3CCNC3)ncc2c1 (centres unmarked) [Compound 12, 3-(Pyrrolidin-3-yl)imidazo[1,5-a]pyridine] | – | – | 1000 to 10000 nM | > 10000 nM | 1000 to 10000 nM | – |
| CN(C)CCc1ncc2ccccn12 [Compound 14, 2-(Imidazo[1,5-a]pyridin-3-yl)-N,N-dimethylethan-1-amine] | – | – | 1000 to 10000 nM | > 10000 nM | 1000 to 10000 nM | – |
| 6-MeO-DMT [Compound 6-MeO-DMT] | do not activate the 5HT2A sensor assay in agonist mode | compete off 5-HT | – | – | – | does not produce a HTR |
